Where a name gives a salt, the structure may show the parent alone.
Experiments:
Assay type in all cases: cell-based
Human GPR40 [1] = target: T1, Human GPR40 (Homo sapiens, UniProt O14842); test: Inositol phosphate turnover (IP1) assay in HEK cells stably expressing human GPR40; conditions: HEK cells stably expressing human GPR40, 3H-inositol labeling, 60 min compound incubation
Method: (§1) Human and mouse GPR40 stable cell-lines were generated in CHO cells stably expressing NFAT BLA (Beta-lactamase). A human GPR40 stable cell-line was generated in HEK cells stably expressing the aequorin expressing reporter. The expression plasmids were transfected using lipofectamine, LIFE TECHNOLOGIES (Carlsbad, Calif.), following manufacturer's instructions. Stable cell-lines were generated following drug selection.
(§2) The assay is performed in a 96-well format. HEK cells stably expressing human GPR40 are plated to be 60-80% confluent within 72 h. After 72 h, the plates are aspirated and the cells washed with inositol-free DMEM (ICN). The wash media is replaced with 150 μL of 3H-inositol labeling media (inositol-free media containing 0.4% human albumin or 0.4% mouse albumin, 1× pen/strep antibiotics, glutamine, 25 mM HEPES to which is added 3H-myo-inositol NEN #NET114A 1 mCi/mL, 25 Ci/mmol diluted 1:150 in loading media with a final specific radioactivity of 1 μCi/150 μL). Alternatively, the human and mouse albumin can be added after the overnight labeling step before the addition of LiCl.
The assay is typically run the next day after 18 h labeling. On the day of the assay, 5 μL of 300 mM LiCl is added to all wells and incubated at 37 degrees for 20 min. […] Beads are allowed to settle and the plates are counted in the Wallac MICROBETA instrument. […]

Human GPR40 [2] = target: T1, Human GPR40; test: FLIPR assay: agonist-induced calcium mobilization in GPR40/CHO NFAT BLA cells; set-up: expressed in transfected cells; host or cells: CHO cells stably expressing NFAT BLA (beta-lactamase)
From the text: as §1
FLIPR (Fluorimetric Imaging Plate Reader, Molecular Devices) assays were performed to measure agonist-induced calcium mobilization of the stable clones. For the FLIPR assay, one day before assay, GPR40/CHO NFAT BLA cells were seeded into black-wall-clear-bottom 384-well plates (Costar) at 1.4×10e4 cells/20 μL medium/well. The cells were incubated with 20 μl/well of the assay buffer (HBSS, 0.1% BSA, 20 mM HEPES, 2.5 mM probenecid, pH 7.4) containing 8 μM fluo-4, AM, 0.08% pluronic acid at room temperature for 100 minutes. Fluorescence output was measured using FLIPR. Compounds were dissolved in DMSO and diluted to desired concentrations with assay buffer. 13.3 μL/well of compound solution was added. The activities of the compounds in the examples have EC50 (effective concentration of compound to afford 50% of the maximum observed fluorescence) values listed in Table I.

Human GPR40 [3] = target: T1, Human GPR40; test: Inositol phosphate turnover (IP1) assay in HEK cells stably expressing human GPR40; set-up: expressed in transfected cells; conditions: HEK cells stably expressing human GPR40, 3H-inositol labeling, 60 min compound incubation
Method: as §1, §2
The assay is typically run the next day after 18 h labeling. On the day of the assay, 5 μL of 300 mM LiCl is added to all wells and incubated at 37 degrees for 20 min. 0.75 μL of 200× compounds are added and incubated with the cells for 60 min at 37 degrees. The media is then aspirated off and the assay terminated with the addition of 60 μL 10 mM formic acid. The cells are lysed for 60 min at room temperature. 15-30 μL of lysate is mixed with 70 μL/1 mg YSi SPA beads AMERSHAM (United Kingdom) in clear bottom Isoplates. The plates are shaken for 2 h at room temperature. Beads are allowed to settle and the plates are counted in the Wallac MICROBETA instrument. The activities of the compounds in the examples have EC50 (effective concentration of compound to afford 50% of the maximum observed […]) values listed in Table I.

T1 sequence (O14842 whole entry): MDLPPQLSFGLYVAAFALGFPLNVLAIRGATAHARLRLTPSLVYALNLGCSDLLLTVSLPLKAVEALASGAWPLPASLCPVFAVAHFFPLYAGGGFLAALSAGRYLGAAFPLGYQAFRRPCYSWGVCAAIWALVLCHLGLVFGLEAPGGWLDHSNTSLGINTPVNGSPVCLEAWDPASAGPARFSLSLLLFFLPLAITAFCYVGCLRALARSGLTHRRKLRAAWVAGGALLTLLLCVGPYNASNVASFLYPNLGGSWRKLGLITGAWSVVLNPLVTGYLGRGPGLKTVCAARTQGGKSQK

Row | EC50 (Human GPR40 [1]) [µM] | EC50 (Human GPR40 [2]) [µM] | EC50 (Human GPR40 [3]) [µM] | Structure (SMILES)
1 | 0.0065 | 0.0307 |  | CS(=O)(=O)CCCOc1ncc(-c2ccc(F)c(COc3ccc4c(c3)C[C@H]3[C@H](C(=O)O)[C@@H]43)c2)c(C(F)(F)F)n1 [Example 33]
2 |  | 0.0178 | 0.016 | Cc1nc(N2CCC(CNS(C)(=O)=O)C2)ccc1-c1ccc(F)c(COc2ccc3c(c2)C[C@H]2[C@H](C(=O)O)[C@@H]32)c1 (stereo partly drawn) [Example 47, (1S,1aS,6aR)-4-((2-fluoro-5-(2-methyl-6-(3-(methylsulfonamidomethyl)pyrrolidin-1-yl)pyridin-3-yl)benzyl)oxy)-1,1a,6,6a-tetrahydrocyclopropa[a]indene-1-carboxylic acid]
3 |  | 0.046 | 0.0073 | Cc1nc(OCCCS(C)(=O)=O)ccc1-c1ccc(F)c(COc2ccc3c(c2)C[C@H]2[C@H](C(=O)O)[C@@H]32)c1 [Example 1, (1S,1aS,6aR)-4-[(2-fluoro-5-{2-methyl-6-[3-(methylsulfonyl)propoxy]pyridin-3-yl}benyzyl)oxy]-1,1a,6,6a-tetrahydrocyclopropa[a]indene-1-carboxylic acid]
4 | 0.0385 | 0.0767 |  | Cc1nc(N2CCN(S(C)(=O)=O)CC2)ccc1-c1cccc(COc2ccc3c(c2)C[C@H]2[C@H](C(=O)O)[C@@H]32)c1 [Example 48]
5 |  | 0.0199 | 0.0205 | Cc1nc(OCCCN2CCCC2=O)ccc1-c1ccc(F)c(COc2ccc3c(c2)C[C@H]2[C@H](C(=O)O)[C@@H]32)c1 [Example 36, (1S,1aS,6aR)-4-((2-fluoro-5-(2-methyl-6-(3-(2-oxopyrrolidin-1-yl)propoxy)pyridin-3-yl)benzyl)oxy)-1,1a,6,6a-tetrahydrocyclo-propa[a]indene-1-carboxylic acid]
6 |  | 0.0489 | 0.01 | Cc1nc(OCC2CCC[C@H](O)[C@@H]2O)ccc1-c1ccc(F)c(COc2ccc3c(c2)C[C@H]2[C@H](C(=O)O)[C@@H]32)c1 (stereo partly drawn) [Example 27, (1S,1aS,6aR)-4-((5-(6-(((2R,3S)-2,3-dihydroxycyclohexyl)methoxy)-2-methylpyridin-3-yl)-2-fluorobenzyl)oxy)-1,1a,6,6a-tetrahydrocyclopropa[a]indene-1-carboxylic acid]
7 |  | 0.0742 | 0.0845 | Cc1ccc(COc2ccc3c(c2)C[C@H]2[C@H](C(=O)O)[C@@H]32)cc1-c1cnc2c(ccn2CCCS(C)(=O)=O)c1 [Example 23, (1S,1aS,6aR)-4-((4-methyl-3-(1-(3-(methylsulfonyl)propyl)-1H-pyrrolo[2,3-b]pyridin-5-yl)benzyl)oxy)-1,1a,6,6a-tetrahydrocyclopropa[a]indene-1-carboxylic acid]
8 |  | 0.0891 | 0.015 | Cc1cc(OCCCS(C)(=O)=O)nc(C)c1-c1cccc(COc2ccc3c(c2)C[C@H]2[C@H](C(=O)O)[C@@H]32)c1 [Example 4, (1S,1aS,6aR)-4-[(3-{2,4-dimethyl-6-[3-(methylsulfonyl)propoxy]pyridin-3-yl}benzyl)oxy]-1,1a,6,6a-tetrahydrocyclopropa[a]indene-1-carboxylic acid]
9 |  | 0.0741 | 0.0808 | Cc1nc(OC2CCC(C(C)(C)O)CC2)ccc1-c1ccc(F)c(COc2ccc3c(c2)C[C@H]2[C@H](C(=O)O)[C@@H]32)c1 (stereo partly drawn) [Example 38, (1S,1aS,6aR)-4-((2-fluoro-5-(6-((4-(2-hydroxypropan-2-yl)cyclohexyl)oxy)-2-methylpyridin-3-yl)benzyl)oxy)-1,1a,6,6a-tetrahydro-cyclopropa[a]indene-1-carboxylic acid]
10 |  | 0.058 | 0.027 | Cc1nc(N2CCC(CS(C)(=O)=O)CC2)ccc1-c1ccc(F)c(COc2ccc3c(c2)C[C@H]2[C@H](C(=O)O)[C@@H]32)c1 [Example 50, (1S,1aS,6aR)-4-((2-fluoro-5-(2-methyl-6-(4-((methylsulfonyl)methyl)piperidin-1-yl)pyridine-3-yl)benzyl)oxy)-1,1a,6,6a-tetrahydrocyclopropa[a]indene-1-carboxylic acid]
11 |  | 0.032 | 0.519 | Cc1nc(N2CCC3(C=Cc4ccccc43)CC2)ccc1-c1ccc(F)c(COc2ccc3c(c2)C[C@H]2[C@H](C(=O)O)[C@@H]32)c1 [Example 40]
12 |  | 0.0838 | 0.0255 | Cc1nc(OCC2(O)CCCCC2O)ccc1-c1ccc(F)c(COc2ccc3c(c2)C[C@H]2[C@H](C(=O)O)[C@@H]32)c1 (stereo partly drawn) [Example 26, (1S,1aS,6aR)-4-((5-(6-((1,2-dihydroxycyclohexyl)methoxy)-2-methylpyridin-3-yl)-2-fluorobenzyl)oxy)-1,1a,6,6a-tetrahydrocyclopropa[a]indene-1-carboxylic acid]

Row | Structure (SMILES) | EC50 (Human GPR40 [1]) [µM] | EC50 (Human GPR40 [2]) [µM] | EC50 (Human GPR40 [3]) [µM]
13 | O=C(O)[C@H]1[C@@H]2Cc3cc(OCc4cc(-c5cnc6[nH]ccc6c5)ccc4F)ccc3[C@@H]21 [Example 24, (1S,1aS,6aR)-4-((2-fluoro-5-(1H-pyrrolo[2,3-b]pyridin-5-yl)benzyl)oxy)-1,1a,6,6a-tetrahydrocyclopropa[a]indene-1-carboxylic acid] |  | 0.0733 | 0.304
14 | Cc1nc(N2CCC(O)CC2)ccc1-c1ccc(F)c(COc2ccc3c(c2)C[C@H]2[C@H](C(=O)O)[C@@H]32)c1 [Example 41, (1S,1aS,6aR)-4-((2-fluoro-5-(6-(4-hydroxypiperidin-1-yl)-2-methylpyridin-3-yl)benzyl)oxy)-1,1a,6,6a-tetrahydrocyclopropa[a]indene-1-carboxylic acid] |  | 0.0224 | 0.006
15 | Cc1nc(OCCCCn2nccn2)ccc1-c1ccc(F)c(COc2ccc3c(c2)CC2C(C(=O)O)C32)c1 (stereo not shown) [Example 29, 4-((5-(6-(4-(2H-1,2,3-triazol-2-yl)butoxy)-2-methyl-pyridin-3-yl)-2-fluorobenzyl)oxy)-1,1a,6,6a-tetrahydrocyclo-propa[a]indene-1-carboxylic acid] |  | 0.0161 | 0.0265
16 | Cc1nc(N2[C@@H]3CC[C@H]2CC(O)C3)ccc1-c1ccc(F)c(COc2ccc3c(c2)C[C@H]2[C@H](C(=O)O)[C@@H]32)c1 (stereo partly drawn) [Example 39, (1S,1aS,6aR)-4-((2-fluoro-5-(6-((1R,5S)-3-hydroxy-8-azabicyclo[3.2.1]octan-8-yl)-2-methylpyridin-3-yl)benzyl)oxy)-1,1a,6,6a-tetrahydrocyclopropa[a]indene-1-carboxylic acid] |  | 0.0476 | 0.026
17 | Cc1cc(-c2ccc(F)c(COc3ccc4c(c3)C[C@H]3[C@H](C(=O)O)[C@@H]43)c2)c2c(cnn2C)n1 [Example 53, 7-(3-((((1S,1aS,6aR)-1-carboxy-1,1a,6,6a-tetrahydrocyclopropa[a]inden-4-yl)oxy)methyl)-4-fluorophenyl)-1,5-dimethyl-1H-pyrazolo[4,3-b]pyridin-4-ium formate] |  | 0.0518 | 0.039

Source: patent US9834563B2 (Merck Sharp & Dohme Corp., priority 2013, dated 2017)
